Experimental data: ChEMBL document CHEMBL1130613, “Design and synthesis of dipeptidyl alpha',beta'-epoxy ketones, potent irreversible inhibitors of the cysteine protease cruzain” (Bioorg Med Chem Lett, 1998)

Each compound was assayed against Cruzipain (Trypanosoma cruzi) (UniProt P25779) (assay: Second order rate constant for inhibition of cruzain).
Cruzipain (Trypanosoma cruzi), sequence (P25779 123-467 limits assumed): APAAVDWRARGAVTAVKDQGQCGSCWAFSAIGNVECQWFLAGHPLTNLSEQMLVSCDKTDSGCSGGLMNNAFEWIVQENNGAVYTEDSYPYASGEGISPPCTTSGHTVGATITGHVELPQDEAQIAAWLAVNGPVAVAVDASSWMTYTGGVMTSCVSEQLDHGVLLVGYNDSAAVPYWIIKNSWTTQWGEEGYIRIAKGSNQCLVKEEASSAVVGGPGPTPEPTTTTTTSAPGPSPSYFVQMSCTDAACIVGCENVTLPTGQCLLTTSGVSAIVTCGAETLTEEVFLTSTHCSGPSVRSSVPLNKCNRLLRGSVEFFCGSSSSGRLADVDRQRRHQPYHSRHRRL

Structure (SMILES)	K inact/Ki [M⁻¹ s⁻¹]
CC(C)CCNC(=O)[C@H](CC(C)C)NC(=O)[C@H]1OC1C(=O)O (single isomer, unassigned)	70600
O=C(N[C@@H](Cc1ccccc1)C(=O)N[C@@H](CCc1ccccc1)C(=O)[C@@H]1CO1)OCc1ccccc1	330000
C[C@H](NC(=O)[C@H](Cc1ccccc1)NC(=O)OCc1ccccc1)C(=O)[C@@H]1CO1	128000
